Results published in patent publication US6270780A, “Cosmetic compositions containing resveratrol” (Chesebrough-Pond's USA Co., division of Conopco, priority 1998, dated 2001).
Like-named read-outs stand apart in the source and are kept apart here.

System: Normal human keratinocytes
Assay: 3H-thymidine incorporation (DNA synthesis) / proliferation of keratinocytes
Assay type: cell-based
Description: The incorporation of ^3 H-thymidine by cultured cells was used as an assay of cell proliferation (both for ZR75 cells and for keratinocytes). Thymidine is one of four deoxynucleosides which are the monomeric units of DNA. Prior to cell division of a somatic cell, the complete genome of the cell undergoing cell division is replicated. This involves large scale DNA synthesis by the cell and enables both daughter cells to receive identical copies of the genetic material. When ^3 H-thymidine is included in the culture media of cells which are synthesizing DNA in preparation for cell division then the labeled thymidine is incorporated into the newly synthesized DNA. The extent of incorporation of ^3 H-thymidine into a population of cells is proportional to the rate of DNA synthesis by this population of cells and therefore an indication of their cellular proliferation.
1. Normal human keratinocytes isolated from neonatal foreskins by trypsin treatment were grown in Dulbecco's modified Eagle's medium (DME)/5% fetal calf serum in the presence of mitomycin C treated 3T3 mouse fibroblasts for establishing dividing keratinocyte colonies. Keratinocytes were grown under the above condition until their third passage.
2. For the experiments, third passage keratinocytes were plated into a serum-free keratinocyte growth medium (KGM; obtained from Clonetics, San Diego, Calif.) containing 0.09 mM calcium. About 30,000 cells were plated into each well of 6 well cell culture plates and grown for 5 days, until the cells reach about 40% confluence.
3. Medium was changed to fresh medium (KBM; obtained from Clonetics) and resveratrol at various concentrations as indicated in Table 2 was added to the medium from a DMSO (Dimethylsulfoxide) stock solution. The final DMSO concentration in the cultures was 0.1%. Control cultures received no resveratrol but were dosed with 0.1% DMSO. Each concentration was tested in three separate wells. After four hours, 1 μCi of ^3 H-thymidine (Amersham Corp., Sp activity 40 Ci/mmol) was added to 1 ml of medium in each well. The cells were incubated for 2 hours. The amount of ^3 H-thymidine associated with the cellular DNA of keratinocytes was assessed as described below.
4. The medium was aspirated, and the wells washed with 1 ml PBS. The DNA and proteins of the cells in the plate were then precipitated by adding 1 ml of ice-cold 10% TCA. The plates were left on ice for 30 minutes to complete the precipitation process. TCA was then aspirated and each well was then washed 4 times with 5% TCA. The cells in the wells were dissolved in 0.5 ml of […] sodium hydroxide. 200 μl was then transferred to a scintillation vial for assessing thymidine incorporation and 25 μl was used for a protein assay using BCA protein assay reagent as described below. 5 ml of a scintillation fluid (Scintiverse) was added to the rest of the solution in the vial, and the vials were counted in a scintillation counter to determine the amount of radioactivity in each vial.
BCA (Bicinchoninic Acid)--Protein Assay
25 μl of cell suspension were placed in a 96 well plate. Standards of BSA (bovine serum albumin) in 0.1N Sodium Hydroxide were also pipetted in triplicate in the same 96 well plate. Pierce BCA protein assay reagent was added (200 μl/well) and plate was incubated for 2 hours at room temperature. Absorbance was read at a wavelength of 570 nm on a Dynatech MR7000 plate reader.
The DNA synthesis rate was then calculated as cpm ^3 H-thymidine incorporated into total cellular DNA/μg of cell protein for each individual well. Mean and standard deviation for each group were also calculated. These numbers were also expressed as percent of control wells. Each data point is expressed as mean of triplicate wells±standard deviation.
The results that were obtained are summarized in Table 2. p values of less than […] were considered to indicate statistical significance.
Example 2 was repeated at various additional concentrations of resveratrol.

SMILES: Oc1ccc(/C=C/c2cc(O)cc(O)c2)cc1 [Resveratrol, 3,4'5-stilbenetriol]
- inhibition at 50 µM (Homo sapiens, Keratinocyte, Table 2 Experiment 1, 50 μM): 98%
- inhibition at 0.78 µM (Homo sapiens, Keratinocyte, Table 2 Experiment 2, 0.78 μM): 33%
- inhibition at 1.56 µM (Homo sapiens, Keratinocyte, Table 2 Experiment 2, 1.56 μM, read-out: % inhibition (DNA synthesis)): 48%
- inhibition at 3.12 µM (Homo sapiens, Keratinocyte, Table 2 Experiment 2, 3.12 μM): 70%
- inhibition at 6.25 µM (Homo sapiens, Keratinocyte, Table 2 Experiment 2, 6.25 μM): 86%
- inhibition at 12.5 µM (Homo sapiens, Keratinocyte, Table 2 Experiment 2, 12.5 μM): 94%
- inhibition at 25 µM (Homo sapiens, Keratinocyte, Table 2 Experiment 2, 25 μM): 97%
- inhibition at 50 µM (Homo sapiens, Keratinocyte, Table 2 Experiment 2, 50 μM): 97%
- inhibition at 0.1 µM (Homo sapiens, Keratinocyte, Table 3, 0.1 μM): 5%
- inhibition at 0.2 µM (Homo sapiens, Keratinocyte, Table 3, 0.2 μM): 12%
- inhibition at 0.3 µM (Homo sapiens, Keratinocyte, Table 3, 0.3 μM): 7%
- inhibition at 0.4 µM (Homo sapiens, Keratinocyte, Table 3, 0.4 μM): 14%
- inhibition at 0.6 µM (Homo sapiens, Keratinocyte, Table 3, 0.6 μM): 6%
- inhibition at 0.8 µM (Homo sapiens, Keratinocyte, Table 3, 0.8 μM): 30%
- inhibition at 1 µM (Homo sapiens, Keratinocyte, Table 3, 1.0 μM): 40%
- inhibition at 2 µM (Homo sapiens, Keratinocyte, Table 3, 2.0 μM): 59%
- inhibition at 1.56 µM (Homo sapiens, Keratinocyte, 1.56 μM, read-out: reduced keratinocyte proliferation): ~50%
- DNA synthesis (cpm/μg protein) (Table 2 Experiment 1, 50 μM): 0.62 ± 0.09 cpm/μg protein
- DNA synthesis (cpm/μg protein) (Table 2 Experiment 2, 0.78 μM): 11.57 ± 1.7 cpm/μg protein
- DNA synthesis (cpm/μg protein) (Table 2 Experiment 2, 1.56 μM): 8.89 ± 1.12 cpm/μg protein
- DNA synthesis (cpm/μg protein) (Table 2 Experiment 2, 3.12 μM): 5.11 ± 0.27 cpm/μg protein
- DNA synthesis (cpm/μg protein) (Table 2 Experiment 2, 6.25 μM): 2.45 ± 0.56 cpm/μg protein
- DNA synthesis (cpm/μg protein) (Table 2 Experiment 2, 12.5 μM): 1.07 ± 0.11 cpm/μg protein
- DNA synthesis (cpm/μg protein) (Table 2 Experiment 2, 25 μM): 0.58 ± 0.05 cpm/μg protein
- DNA synthesis (cpm/μg protein) (Table 2 Experiment 2, 50 μM): 0.44 ± 0.12 cpm/μg protein
- DNA synthesis (cpm/μg protein) (Table 3, 0.1 μM): 60.4 ± 4.1 cpm/μg protein
- DNA synthesis (cpm/μg protein) (Table 3, 0.2 μM): 56.3 ± 3.0 cpm/μg protein
- DNA synthesis (cpm/μg protein) (Table 3, 0.3 μM): 58.8 ± 0.4 cpm/μg protein
- DNA synthesis (cpm/μg protein) (Table 3, 0.4 μM): 54.2 ± 1.2 cpm/μg protein
- DNA synthesis (cpm/μg protein) (Table 3, 0.6 μM): 59.3 ± 5.5 cpm/μg protein
- DNA synthesis (cpm/μg protein) (Table 3, 0.8 μM): 44.4 ± 2.6 cpm/μg protein
- DNA synthesis (cpm/μg protein) (Table 3, 1.0 μM): 37.7 ± 4.0 cpm/μg protein
- DNA synthesis (cpm/μg protein) (Table 3, 2.0 μM): 25.7 ± 2.4 cpm/μg protein
- inhibition of DNA synthesis (both experiments, 50 μM): inhibited DNA synthesis completely
- DNA synthesis of keratinocytes (concentrations as low as 1.56 μM): decreased DNA synthesis of keratinocytes significantly
- reducing keratinocyte proliferation (concentrations lower than 0.8 μm (0.000018 wt. %)): not effective at reducing keratinocyte proliferation
